For seven compounds, RFU results are on record in ChEMBL document CHEMBL3616372, “A novel sesquiterpene and three new phenolic compounds from the rhizomes of Acorus tatarinowii Schott” (Bioorg Med Chem Lett, 2015).

Format in all cases: cell-based
The target of test [1] is Sodium-dependent serotonin transporter (Homo sapiens) (UniProt P31645). The test is described as follows: Inhibition of human SERT expressed in HEK293 cells using 4-[4-(Dimethylamino)phenyl]-1-methyl pyridinium as substrate assessed as fluorescent intensity at 1 uM after 3 hrs relative to control.
For test [2] the target is unchanged. In words: Inhibition of human SERT expressed in HEK293 cells using 4-[4-(Dimethylamino)phenyl]-1-methyl pyridinium as substrate assessed as fluorescent intensity at 0.1 uM after 3 hrs relative to control.
For test [3] the target is unchanged. The test is described as follows: Inhibition of human SERT expressed in HEK293 cells using 4-[4-(Dimethylamino)phenyl]-1-methyl pyridinium as substrate assessed as fluorescent intensity at 10 uM after 3 hrs relative to control.

Chain of Sodium-dependent serotonin transporter (Homo sapiens) (P31645 whole entry, looked up): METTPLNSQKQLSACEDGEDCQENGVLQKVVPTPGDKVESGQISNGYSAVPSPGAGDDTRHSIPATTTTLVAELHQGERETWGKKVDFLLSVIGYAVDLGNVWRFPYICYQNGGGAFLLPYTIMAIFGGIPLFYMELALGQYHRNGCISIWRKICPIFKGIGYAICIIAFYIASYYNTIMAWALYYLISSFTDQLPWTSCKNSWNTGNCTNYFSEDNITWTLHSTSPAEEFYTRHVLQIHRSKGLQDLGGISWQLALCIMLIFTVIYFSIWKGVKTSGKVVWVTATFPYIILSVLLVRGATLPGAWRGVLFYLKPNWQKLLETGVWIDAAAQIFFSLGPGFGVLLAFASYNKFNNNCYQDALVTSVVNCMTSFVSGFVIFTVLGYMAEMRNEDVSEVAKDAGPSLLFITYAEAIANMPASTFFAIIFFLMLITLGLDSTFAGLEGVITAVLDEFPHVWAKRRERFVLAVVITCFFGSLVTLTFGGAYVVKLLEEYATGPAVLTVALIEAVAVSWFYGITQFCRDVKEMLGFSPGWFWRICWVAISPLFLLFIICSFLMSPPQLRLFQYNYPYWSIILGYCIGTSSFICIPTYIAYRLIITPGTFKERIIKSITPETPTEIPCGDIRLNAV

Consider `CN1c2ccccc2C(NCCCCCCC(=O)O)c2ccc(Cl)cc2S1(=O)=O` (centres undefined), for which the RFU in test [1] came to 1.11.

As to `COC(=O)CCCNC(=O)/C=C\c1ccc(O)c(OC)c1`, the values for the RFU in test [1], in test [2] and in test [3] were 1.08, 1.04 and 1.06, respectively.

In the case of `COC(=O)CCCNC(=O)/C=C/c1ccc(O)c(OC)c1`, the RFU stood at 1.07 in test [1], 1.02 in test [2] and 1.04 in test [3].

With `COc1cc(C[C@@H](CO)c2cc(C(=O)O)cc(OC)c2O)ccc1O`, the RFU in test [1] is 0.997; in test [2], 1.01; in test [3] it was 0.873.

`COc1cc([C@H]2Oc3c(OC)cc(C(=O)O)cc3[C@@H]2CO)ccc1O`: the RFU stood at 1.01 in test [1], 1.04 in test [2] and 1.09 in test [3].

As for `COc1cc([C@@H]2Oc3c(OC)cc(C(=O)O)cc3[C@H]2CO)ccc1O`, the values for the RFU in test [1], in test [2] and in test [3] were 1.03, 0.984 and 1.06, respectively.

`CC(C)C[C@]12C[C@]3(O)O[C@@]1(OC(=O)C[C@H]2C)[C@H](O)[C@]3(C)O`: the RFU in test [1] came to 0.883; in test [2], 0.858; in test [3], 0.928.
